≈ marks a conversion by molar mass, not a printed value.

Data set [1] has as its system Human immunodeficiency virus 1. Put plainly: Antiviral activity against HIV1 IIIB harboring K103 N mutant infected in MT4 cells assessed as reduction in virus induced cytopathic effect incubated for 5 days by MTT method. To be noted: Human immunodeficiency virus 1, IIIB, MT4, 120 h. Type of data set: functional, organism-based. (Cytopathic effects are the visible damage that an infection or toxin causes in cultured cells.)

The test system of data set [2] is Human immunodeficiency virus 1. As to the kind of experiment: Antiviral activity against HIV1 IIIB harboring E138K mutant infected in MT4 cells assessed as reduction in virus induced cytopathic effect incubated for 5 days by MTT method. Type of data set: functional, organism-based. Conditions: Human immunodeficiency virus 1, IIIB, MT4, 120 h.
Data set [3] concerns the target Human immunodeficiency virus type 1 reverse transcriptase (Human immunodeficiency virus 1, UniProt Q72547). As to the kind of experiment: Inhibition of HIV-1 reverse transcriptase assessed as reduction in biotin-dUTP incorporation incubated for 2 hrs in presence of template and viral nucleotides by ELISA. On the technique in general: ELISA stands for enzyme-linked immunosorbent assay.

Data set [4] is described as follows: Selectivity index, ratio of CC50 for human MT4 cells to EC50 for antiviral activity against HIV1 IIIB infected in MT4 cells. Type of data set: toxicity, cell-based. To be noted: read-out: Ratio CC50/EC50.
Data set [5] can be described thus: Aqueous solubility of compound at pH 2 incubated for 24 hrs under shaking condition by HPLC method. To be noted: buffer. Type of data set: physicochemical.
In data set [6] the test system is Human immunodeficiency virus 1. Put plainly: Antiviral activity against HIV1 IIIB harboring Y188L mutant infected in MT4 cells assessed as reduction in virus induced cytopathic effect incubated for 5 days by MTT method. Type of data set: functional, organism-based. Conditions: Human immunodeficiency virus 1, IIIB, MT4, 120 h.
Data set [7] in a line: Aqueous solubility of compound at pH 7.4 incubated for 24 hrs under shaking condition by HPLC method. Type of data set: physicochemical. Conditions: buffer.
The test system of data set [8] is Human immunodeficiency virus 1. As to the kind of experiment: Antiviral activity against HIV1 IIIB infected in MT4 cells assessed as reduction in virus induced cytopathic effect incubated for 5 days by MTT method. Type of data set: functional, organism-based. Conditions: Human immunodeficiency virus 1, IIIB, MT4, 120 h.
Data set [9] deals with Human immunodeficiency virus 1. As to the kind of experiment: Antiviral activity against HIV1 IIIB harboring Y188L mutant infected in MT4 cells assessed as fold increase in reduction of virus induced cytopathic effect incubated for 5 days by MTT method relative to A6N36. Type of data set: functional. Conditions: time 5 day.
In data set [10] the test system is Human immunodeficiency virus 1. As to the kind of experiment: Antiviral activity against HIV1 IIIB harboring F227L/V106A double mutant infected in MT4 cells assessed as reduction in virus induced cytopathic effect incubated for 5 days by MTT method. Type of data set: functional, organism-based. To be noted: Human immunodeficiency virus 1, IIIB, MT4, 120 h.
Data set [11] can be described thus: Aqueous solubility of compound at pH 7 incubated for 24 hrs under shaking condition by HPLC method. Type of data set: physicochemical. To be noted: buffer.
The subject of data set [12] is Human immunodeficiency virus 1. As to the kind of experiment: Antiviral activity against HIV1 IIIB harboring L100I mutant infected in MT4 cells assessed as reduction in virus induced cytopathic effect incubated for 5 days by MTT method. Type of data set: functional, organism-based. Conditions: Human immunodeficiency virus 1, IIIB, MT4, 120 h.
Data set [13] concerns Human immunodeficiency virus 1. Put plainly: Antiviral activity against HIV1 IIIB harboring Y181C mutant infected in MT4 cells assessed as reduction in virus induced cytopathic effect incubated for 5 days by MTT method. Type of data set: functional, organism-based. Conditions: Human immunodeficiency virus 1, IIIB, MT4, 120 h.
The test system of data set [14] is Human immunodeficiency virus 1. Put plainly: Antiviral activity against HIV1 IIIB harboring RES056 mutant infected in MT4 cells assessed as reduction in virus induced cytopathic effect incubated for 5 days by MTT method. Type of data set: functional, organism-based. Conditions: Human immunodeficiency virus 1, IIIB, MT4, 120 h.
Data set [15] in a line: Cytotoxicity against human MT4 cells assessed as reduction in cell viability incubated for 5 days by MTT method. Type of data set: toxicity, cell-based. Conditions: time 5 day. For orientation: Tetrazolium dyes change colour on reduction, which living cells bring about.
Data set [16] relates to Human immunodeficiency virus 1. Put plainly: Antiviral activity against HIV1 IIIB harboring F227L/V106A double mutant infected in MT4 cells assessed as fold increase in reduction of virus induced cytopathic effect incubated for 5 days by MTT method relative to A6N36. Type of data set: functional. Conditions: time 5 day.
The subject of data set [17] is Human immunodeficiency virus 1. Put plainly: Antiviral activity against HIV1 IIIB harboring RES056 mutant infected in MT4 cells assessed as fold increase in reduction of virus induced cytopathic effect incubated for 5 days by MTT method relative to A6N36. Type of data set: functional. Conditions: time 5 day.
Data set [18] in a line: Aqueous solubility of compound at pH 7.4. To be noted: buffer.
Data set [19] is described as follows: Aqueous solubility of compound at pH 7. Conditions: buffer.

The EC50 is the midpoint of the concentration-response curve. In general, IC50 refers to the concentration at which inhibition is half-maximal. Usually solubility (thermodynamic) stands for the concentration in solution at equilibrium with solid. For orientation: CC50 means the concentration that lowers cell viability or growth by half. As for `Cc1cc(/C=C/C#N)cc(C)c1Oc1nc(NC2CCN(Cc3cn(CC(N)=O)nn3)CC2)nc2sccc12`, the EC50 in [1] was found to be 5 nM; in [2], 14 nM; in data set [6], 39 nM; in data set [8] it was 4 nM; in [10], 51 nM; in data set [12], 6 nM. The values for the EC50 in [13] and in [14] were 17 nM and 89 nM, respectively. In addition, the IC50 in [3] turned out to be 118 nM. In [4], the selectivity ratio was 14500. For the same molecule, the figures for the thermodynamic solubility at 24 h in data set [5], in data set [7] and in [11] were 228 µg/mL (≈ 419 µM), 20.1 µg/mL (≈ 37 µM) and 22.5 µg/mL (≈ 41.4 µM), respectively. Moreover, the “fold change (FC)” value in [9] worked out at 3. For the same molecule, the CC50 at 120 h in data set [15] came out at 62500 nM.

Consider `CNC(=O)Cn1cc(CN2CCC(Nc3nc(Oc4c(C)cc(/C=C/C#N)cc4C)c4ccsc4n3)CC2)nn1`, for which the EC50 in [1] came out at 3 nM; in [2], 9 nM; in [6], 30 nM; in data set [8], 5 nM; in data set [10] it was 28 nM; in data set [12] it was 4 nM. The EC50 stood at 8 nM in data set [13] and 58 nM in [14]. In addition, the “fold change (FC)” value turned out to be 2 in data set [16], 3 in data set [9] and 2 in [17]. The concentration for half-maximal inhibition (IC50) in [3] was 134 nM. In data set [4], the selectivity ratio is 3990. Moreover, the thermodynamic solubility at 24 h in [5] came out at 733 µg/mL (≈ 1310 µM); in data set [7], 20.1 µg/mL (≈ 36 µM); in data set [11] it was 23.6 µg/mL (≈ 42.3 µM). Moreover, in data set [15], the CC50 at 120 h came to 18700 nM.

In the case of `Cc1cc(/C=C/C#N)cc(C)c1Oc1nc(NC2CCN(Cc3cn(CC(=O)NC4CCOCC4)nn3)CC2)nc2sccc12`, the EC50 is 5 nM in data set [1]; 18 nM in data set [2]; 29 nM in [6]; 3 nM in data set [8]; 47 nM in data set [10]; 5 nM in data set [12]. The EC50 in data set [13] came out at 15 nM; in data set [14], 62 nM. Moreover, the half-maximal inhibitory concentration (IC50) in [3] is 220 nM. Further, in data set [4], the selectivity ratio came to 4980. The thermodynamic solubility at 24 h amounted to 1610 µg/mL (≈ 2570 µM) in data set [5], 23.1 µg/mL (≈ 36.8 µM) in [7] and 22.5 µg/mL (≈ 35.8 µM) in data set [11]. For the same molecule, the “fold change (FC)” value in [9] was found to be 3. Also, in data set [15], the 50% cytotoxic concentration (CC50) at 120 h came to 16000 nM.

By solubility is commonly meant the dissolved amount per volume that the medium holds. The low end stands for a poorly soluble substance, the high end for a readily soluble substance. `Cc1cc(/C=C/C#N)cc(C)c1Nc1ccnc(Nc2ccc(C#N)cc2)n1` [RILPIVIRINE]: the solubility in data set [18] and in [19] was less than 1 µg/mL each time.

For the origin of these results see ChEMBL document CHEMBL5614409, “Discovery of potent HIV-1 NNRTIs by CuAAC click-chemistry-based miniaturized synthesis, rapid screening and structure optimization” (Eur J Med Chem, 2024).
